The assay concerns BDF1 mice, B16 melanoma ip, median survival T/C. The assay is described as follows: NCI In Vivo Anticancer Drug Screen. Data for tumor model B16 Melanoma (intraperitoneal) in B6D2F1 (BDF1) mice. As to conditions: endpoint: median survival time, higher = longer survival. The method in brief:
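Mice with transplantable tumors; drug vs vehicle groups; endpoint survival or tumor size; value = T/C.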

[1] abbreviates: dose: 100.0 mg/kg/injection, schedule: Q01DX009 (ip), vehicle: Klucel (hydroxypropylcellulose) (HPC).
[2] abbreviates: dose: 25.0 mg/kg/injection, schedule: Q01DX009 (ip), vehicle: saline with Tween-80.
[3] abbreviates: dose: 200.0 mg/kg/injection, schedule: Q01DX009 (ip), vehicle: saline with Tween-80.

Several values for one entry are separate records, joined by “and”; a condition that tells them apart may be missing. Identical values can stand only once. Inconclusive results and toxic doses are left out.

With `CCC1(O)CC2CN(CCc3c([nH]c4ccccc34)C(C(=O)OC)(c3cc4c(cc3OC)N(C)C3C(O)(C(N)=O)C(O)C5(CC)C=CCN6CCC43C65)C2)C1` (centres undefined) (tested in a mixture with another compound), the T/C is 115 % of control (dose: 0.12 mg/kg/injection, schedule: Q04DX003 (ip), vehicle: water); 162 % of control (dose: 0.13 mg/kg/injection, schedule: Q01DX009 (ip), vehicle: water); 159 % of control (dose: 0.18 mg/kg/injection, schedule: Q04DX003 (ip), vehicle: saline); 183 % of control (dose: 0.22 mg/kg/injection, schedule: Q01DX009 (ip), vehicle: water); 108 % of control (dose: 0.25 mg/kg/injection, schedule: Q04DX003 (ip), vehicle: saline); 115 % of control (dose: 0.25 mg/kg/injection, schedule: Q04DX003 (ip), vehicle: water). Moreover, the T/C by setting is: (dose: 0.3 mg/kg/injection, schedule: Q04DX003 (ip), vehicle: saline) 177 % of control; (dose: 0.36 mg/kg/injection, schedule: Q01DX009 (ip), vehicle: water) 151 % of control and 184 % of control; (dose: 0.39 mg/kg/injection, schedule: Q04DX003 (ip), vehicle: saline) 176 % of control; (dose: 0.5 mg/kg/injection, schedule: Q04DX003 (ip), vehicle: saline) 109 % of control and 236 % of control; (dose: 0.5 mg/kg/injection, schedule: Q04DX003 (ip), vehicle: water) 118 % of control; (dose: 0.52 mg/kg/injection, schedule: Q04DX003 (ip), vehicle: water) 183 % of control. Also, the T/C reads like this: (dose: 0.6 mg/kg/injection, schedule: Q01DX009 (ip), vehicle: water) 241 % of control; (dose: 0.6 mg/kg/injection, schedule: Q04DX003 (ip), vehicle: saline) 119 % of control; (dose: 0.65 mg/kg/injection, schedule: Q04DX003 (ip), vehicle: saline) 172 % of control; (dose: 0.86 mg/kg/injection, schedule: Q04DX003 (ip), vehicle: water) 166 % of control and 202 % of control; (dose: 1.0 mg/kg/injection, schedule: Q04DX003 (ip), vehicle: saline) 168 % of control; (dose: 1.04 mg/kg/injection, schedule: Q01DX001 (ip), vehicle: water) 122 % of control. Further, the T/C is 206 % of control (dose: 1.08 mg/kg/injection, schedule: Q04DX003 (ip), vehicle: saline); 151 % of control and 275 % of control (dose: 1.44 mg/kg/injection, schedule: Q04DX003 (ip), vehicle: water); 165 % of control (dose: 1.73 mg/kg/injection, schedule: Q01DX001 (ip), vehicle: water); 241 % of control (dose: 1.8 mg/kg/injection, schedule: Q04DX003 (ip), vehicle: saline); 180 % of control (dose: 2.0 mg/kg/injection, schedule: Q04DX003 (ip), vehicle: saline); 166 % of control (dose: 2.9 mg/kg/injection, schedule: Q01DX001 (ip), vehicle: water). Also, the T/C (dose: 4.0 mg/kg/injection, schedule: Q04DX003 (ip), vehicle: saline) was 181 % of control; the T/C (dose: 4.8 mg/kg/injection, schedule: Q01DX001 (ip), vehicle: water) is 152 % of control and 194 % of control; the T/C (dose: 8.0 mg/kg/injection, schedule: Q01DX001 (ip), vehicle: water) was 211 % of control; the T/C (dose: 37.5 micrograms/kg/injection, schedule: Q01DX009 (ip), vehicle: water) is 98 % of control; the T/C (dose: 60.0 micrograms/kg/injection, schedule: Q01DX009 (ip), vehicle: saline) was 151 % of control; the T/C (dose: 75.0 micrograms/kg/injection, schedule: Q01DX009 (ip), vehicle: water) was 107 % of control. Besides, the T/C reads like this: (dose: 100.0 micrograms/kg/injection, schedule: Q01DX009 (ip), vehicle: saline) 152 % of control; (dose: 130.0 micrograms/kg/injection, schedule: Q01DX009 (ip), vehicle: water) 120 % of control; (dose: 150.0 micrograms/kg/injection, schedule: Q01DX009 (ip), vehicle: water) 111 % of control; (dose: 170.0 micrograms/kg/injection, schedule: Q01DX009 (ip), vehicle: saline) 226 % of control; (dose: 216.0 micrograms/kg/injection, schedule: Q01DX009 (ip), vehicle: saline) 173 % of control; (dose: 216.0 micrograms/kg/injection, schedule: Q01DX009 (ip), vehicle: water) 150 % of control and 165 % of control. Also, the T/C is 123 % of control (dose: 300.0 micrograms/kg/injection, schedule: Q01DX009 (ip), vehicle: water); 183 % of control (dose: 360.0 micrograms/kg/injection, schedule: Q01DX009 (ip), vehicle: saline); 155 % of control (dose: 360.0 micrograms/kg/injection, schedule: Q01DX009 (ip), vehicle: water); 187 % of control and 207 % of control (dose: 389.0 micrograms/kg/injection, schedule: Q04DX003 (ip), vehicle: saline); 191 % of control (dose: 600.0 micrograms/kg/injection, schedule: Q01DX009 (ip), vehicle: saline); 155 % of control and 175 % of control (dose: 600.0 micrograms/kg/injection, schedule: Q01DX009 (ip), vehicle: water). In addition, the T/C reads like this: (dose: 648.0 micrograms/kg/injection, schedule: Q04DX003 (ip), vehicle: saline) 179 % of control and 258 % of control; (dose: 1080.0 micrograms/kg/injection, schedule: Q04DX003 (ip), vehicle: saline) 161 % of control and 214 % of control and 225 % of control; (dose: 1800.0 micrograms/kg/injection, schedule: Q04DX003 (ip), vehicle: saline) 195 % of control and 248 % of control and 303 % of control; (dose: 3000.0 micrograms/kg/injection, schedule: Q04DX003 (ip), vehicle: saline) 152 % of control and 243 % of control and 308 % of control.
In the case of `Cc1ccc(C)c(NC(=O)c2ccccc2C(=O)O)c1`, the T/C was 94 % of control under setting [1] and 91 % of control (dose: 200.0 mg/kg/injection, schedule: Q01DX009 (ip), vehicle: Klucel (hydroxypropylcellulose) (HPC)).
For `CC(=O)NNC(=O)c1ccccn1`, the T/C was 87 % of control under setting [2]; 93 % of control and 116 % of control (dose: 25.0 mg/kg/injection, schedule: Q01DX009 (ip), vehicle: water); 110 % of control and 113 % of control (dose: 50.0 mg/kg/injection, schedule: Q01DX009 (ip), vehicle: water); 93 % of control and 100 % of control (dose: 100.0 mg/kg/injection, schedule: Q01DX009 (ip), vehicle: water); 89 % of control under setting [3].
Turning to `O=C(NC1CCCCC1)OCc1c(COC(=O)NC2CCCCC2)c(-c2ccc(Cl)c(Cl)c2)n2c1CCC2`, the T/C runs as follows: (dose: 12.5 mg/kg/injection, schedule: Q01DX009 (ip), vehicle: saline with Tween-80) 169 % of control; under setting [2], 214 % of control; (dose: 25.0 mg/kg/injection, schedule: Q01DX009 (oral), vehicle: saline with Tween-80) 107 % of control; (dose: 50.0 mg/kg/injection, schedule: Q01DX009 (ip), vehicle: saline with Tween-80) 290 % of control; (dose: 50.0 mg/kg/injection, schedule: Q01DX009 (oral), vehicle: saline with Tween-80) 102 % of control; (dose: 100.0 mg/kg/injection, schedule: Q01DX009 (ip), vehicle: saline with Tween-80) 304 % of control. Besides, the T/C reads like this: (dose: 100.0 mg/kg/injection, schedule: Q01DX009 (oral), vehicle: saline with Tween-80) 106 % of control; under setting [3], 153 % of control; (dose: 200.0 mg/kg/injection, schedule: Q01DX009 (oral), vehicle: saline with Tween-80) 107 % of control; (dose: 400.0 mg/kg/injection, schedule: Q01DX009 (ip), vehicle: saline with Tween-80) 91 % of control; (dose: 400.0 mg/kg/injection, schedule: Q01DX009 (oral), vehicle: saline with Tween-80) 106 % of control; (dose: 800.0 mg/kg/injection, schedule: Q01DX009 (oral), vehicle: saline with Tween-80) 102 % of control.
As for `COC(=O)CCCCCNC(=O)NCCCCCC(=O)OC`, the T/C reads like this: (dose: 100.0 mg/kg/injection, schedule: Q04DX003 (ip), vehicle: Klucel (hydroxypropylcellulose) (HPC)) 86 % of control; (dose: 200.0 mg/kg/injection, schedule: Q04DX003 (ip), vehicle: Klucel (hydroxypropylcellulose) (HPC)) 95 % of control; (dose: 400.0 mg/kg/injection, schedule: Q04DX003 (ip), vehicle: Klucel (hydroxypropylcellulose) (HPC)) 91 % of control.
Regarding `CCN1C=C/C(=C\C=C/c2cc[n+](CC)c3ccccc23)c2ccccc21`, the T/C (dose: 6.0 micrograms/kg/injection, schedule: Q01DX009 (ip), vehicle: saline) is 106 % of control; the T/C (dose: 12.0 micrograms/kg/injection, schedule: Q01DX009 (ip), vehicle: saline) was 110 % of control; the T/C (dose: 25.0 micrograms/kg/injection, schedule: Q01DX009 (ip), vehicle: saline) was 115 % of control; the T/C (dose: 50.0 micrograms/kg/injection, schedule: Q01DX009 (ip), vehicle: saline) was 106 % of control.
Consider `CNC(Cc1ccccc1)c1ccc(OC)cc1` (centres undefined), for which the T/C by setting is: (dose: 50.0 mg/kg/injection, schedule: Q01DX009 (ip), vehicle: Klucel (hydroxypropylcellulose) (HPC)) 96 % of control; under setting [1], 96 % of control.

(Values after PubChem BioAssay AID192 (DTP/NCI, 2004).)
